Among the test systems are COLO 205 colon; HL-60(TB) leukemia; HOP-62 NSCLC; NCI-H460 lung; OVCAR-8 ovarian; SK-MEL-2 melanoma; TK-10 renal; UACC-62 melanoma; UO-31 renal; MOLT-4 leukemia.
Common to all, as to assay: DTP human tumour cell line panel, 48 h

14 compounds from PubChem BioAssay (NCI) can be followed below.

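Exposure lasted 48 hours, with cells grown in 96-well plates and compounds tested at five concentrations. TGI is the concentration that stops growth completely.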 Bounds are passed on as bounds.

Regarding `COC(=O)/C=C\C(C#N)(C#N)N=Cc1sccc1C`, the TGI in the assay on COLO 205 colon was determined as 2.53 µM; with HL-60(TB) leukemia, 4.45 µM; with HOP-62 NSCLC, 27.8 µM; in the assay with NCI-H460 lung, 31.4 µM; in the assay with OVCAR-8 ovarian, 8.69 µM; in the assay on SK-MEL-2 melanoma, 30.2 µM. Further, the concentration for total growth inhibition (TGI) with TK-10 renal is 4.12 µM; in the assay on UACC-62 melanoma, 17 µM; in the assay on UO-31 renal, 3.51 µM.

Regarding `COc1c2c(cc3c1C1(O)Cc4ccc5c(c4C[N+]1(C)CC3)OCO5)OCO2` (centres undefined), the TGI in the assay with COLO 205 colon, in the assay on HL-60(TB) leukemia, with HOP-62 NSCLC, in the assay on MOLT-4 leukemia, in the assay with NCI-H460 lung and in the assay with OVCAR-8 ovarian was above 100 µM in each case. The concentration for total growth inhibition (TGI) with SK-MEL-2 melanoma, with TK-10 renal and in the assay with UACC-62 melanoma was above 100 µM throughout.

Regarding `CNC(=O)OC(COC)CN1CCN(c2ccccc2C)CC1` (centres undefined), the concentration for total growth inhibition (TGI) with COLO 205 colon, in the assay on HL-60(TB) leukemia, in the assay with HOP-62 NSCLC, in the assay with MOLT-4 leukemia, in the assay with NCI-H460 lung and in the assay with OVCAR-8 ovarian was above 10 µM throughout. Besides, the TGI in the assay with SK-MEL-2 melanoma, in the assay with TK-10 renal, in the assay with UACC-62 melanoma and with UO-31 renal was above 10 µM in each case.

Consider `OC12c3ccccc3C3CCC4(OCCO4)C3C1c1ccccc12` (centres undefined), for which the TGI in the assay on COLO 205 colon, in the assay on HL-60(TB) leukemia, in the assay on HOP-62 NSCLC, in the assay with MOLT-4 leukemia, in the assay with NCI-H460 lung and with OVCAR-8 ovarian was above 100 µM in each case. Further, the TGI in the assay on SK-MEL-2 melanoma, with TK-10 renal, in the assay with UACC-62 melanoma and with UO-31 renal was above 100 µM in each case.

On to `NC(=O)c1c(NC=O)ncn1C1OCC(O)C(O)C1O` (centres undefined), for which the TGI in the assay on COLO 205 colon, in the assay on HL-60(TB) leukemia, with HOP-62 NSCLC, with MOLT-4 leukemia, in the assay on NCI-H460 lung and in the assay on OVCAR-8 ovarian was above 100 µM throughout. The TGI in the assay on SK-MEL-2 melanoma, in the assay with TK-10 renal, in the assay on UACC-62 melanoma and with UO-31 renal was above 100 µM each time.

Regarding `CC1(C)CC(=O)c2c(nc3c(ccc4ccccc43)c2-c2ccc(NC(=O)CCCCC(=O)Nc3ccc(-c4c5c(nc6c4ccc4ccccc46)CC(C)(C)CC5=O)cc3)cc2)C1`, the TGI in the assay with COLO 205 colon was 65.1 µM; in the assay on HL-60(TB) leukemia, 77.6 µM; in the assay with HOP-62 NSCLC, above 100 µM; in the assay with MOLT-4 leukemia, 55.9 µM; with NCI-H460 lung, 91.8 µM; with OVCAR-8 ovarian, 98.4 µM. The values for the TGI in the assay on SK-MEL-2 melanoma, with TK-10 renal and with UO-31 renal were 92.6 µM, above 100 µM and 74.1 µM, respectively.

As to `COc1ccc2c(c1)c(=O)c1c(NCCN(C)C)ccc3nnn2c31`, the TGI in the assay on COLO 205 colon is 10 µM; in the assay with HL-60(TB) leukemia it was 5.51 µM; in the assay on HOP-62 NSCLC it was 15.4 µM; with MOLT-4 leukemia it was 2.99 µM; with NCI-H460 lung, 8.54 µM; in the assay with OVCAR-8 ovarian it was 13.6 µM. The TGI in the assay with SK-MEL-2 melanoma worked out at 19.7 µM; in the assay on TK-10 renal, 13.3 µM; in the assay on UACC-62 melanoma it was 17.8 µM; in the assay with UO-31 renal it was 13.3 µM.

For the compound `Nc1c2c(nc3ccccc13)-c1ccccc1NCCC2`, the TGI with COLO 205 colon was 35.2 µM; in the assay on HL-60(TB) leukemia it was 47.5 µM; in the assay with HOP-62 NSCLC, 54.2 µM; with MOLT-4 leukemia, above 100 µM; in the assay on NCI-H460 lung it was 38 µM; in the assay on OVCAR-8 ovarian it was above 100 µM. Besides, the TGI came to 37.1 µM with SK-MEL-2 melanoma, 49.6 µM in the assay on TK-10 renal, 41.2 µM in the assay with UACC-62 melanoma and 88.3 µM in the assay with UO-31 renal.

For `CCC(O)c1ccc(N=Cc2ccccc2O)cc1` (centres undefined), the TGI in the assay with COLO 205 colon, in the assay with HL-60(TB) leukemia, with HOP-62 NSCLC, with MOLT-4 leukemia, in the assay on NCI-H460 lung and with SK-MEL-2 melanoma was above 100 µM each time. Further, the TGI in the assay on TK-10 renal, with UACC-62 melanoma and in the assay on UO-31 renal was above 100 µM throughout.

For `Cc1ccc(NC(=O)/C(=N/N(C)C)C(C2OC(=O)c3ccccc32)[N+](=O)[O-])cc1` (centres undefined), the TGI with HL-60(TB) leukemia, with HOP-62 NSCLC, in the assay on MOLT-4 leukemia, in the assay with NCI-H460 lung, in the assay on OVCAR-8 ovarian and in the assay on SK-MEL-2 melanoma was above 100 µM each time. The TGI in the assay on TK-10 renal, in the assay with UACC-62 melanoma and in the assay on UO-31 renal was above 100 µM throughout.

On to `CC(CN(C)C)C(=O)c1ccccc1` (centres undefined), for which the concentration for total growth inhibition (TGI) is above 67.5 µM in the assay with COLO 205 colon; above 57 µM in the assay with HL-60(TB) leukemia; above 100 µM with HOP-62 NSCLC; 27.6 µM in the assay on MOLT-4 leukemia; above 100 µM in the assay with NCI-H460 lung; above 91.2 µM in the assay on OVCAR-8 ovarian. In addition, the TGI in the assay on SK-MEL-2 melanoma was 66.8 µM; with TK-10 renal, above 100 µM; in the assay with UACC-62 melanoma it was above 57.4 µM; in the assay on UO-31 renal, above 31.6 µM.

As to `CC[P+]1(c2ccccc2)[C@@H](C)CC[C@@H]1C`, the TGI in the assay on COLO 205 colon, in the assay with HL-60(TB) leukemia, in the assay on HOP-62 NSCLC, with MOLT-4 leukemia, with NCI-H460 lung and in the assay on OVCAR-8 ovarian was above 100 µM throughout. Further, the TGI in the assay on SK-MEL-2 melanoma, with TK-10 renal, in the assay on UACC-62 melanoma and with UO-31 renal was above 100 µM each time.

Turning to `COc1cc2ccc1OCc1cccc(n1)COc1ccc(cc1OC)C=NCCNCCNCCN=C2`, the TGI in the assay on COLO 205 colon, with HL-60(TB) leukemia, in the assay with HOP-62 NSCLC, in the assay with MOLT-4 leukemia, with NCI-H460 lung and with OVCAR-8 ovarian was above 100 µM each time. For the same compound, the TGI in the assay on SK-MEL-2 melanoma, with TK-10 renal, with UACC-62 melanoma and in the assay with UO-31 renal was above 100 µM in each case.

In the case of `O=C(Nc1cccc2ccccc12)c1ccccc1`, the TGI in the assay with COLO 205 colon, in the assay on HL-60(TB) leukemia, in the assay with HOP-62 NSCLC, in the assay on NCI-H460 lung, with OVCAR-8 ovarian and with SK-MEL-2 melanoma was above 100 µM in each case. For the same compound, the TGI with TK-10 renal, in the assay with UACC-62 melanoma and in the assay with UO-31 renal was above 100 µM each time.

For orientation: TGI means the concentration at which net growth stops. Low values mean greater sensitivity of the cells, high ones lower sensitivity of the cells.
